Data reported in patent US20210298332A1, “AGENT FOR SUPPRESSING HEAT-RESISTANT ACIDOPHILIC BACTERIA, METHOD FOR PREVENTING CONTAMINATION WITH HEAT-RESISTANT ACIDOPHILIC BACTERIA, AND BEVERAGE” (SUNTORY HOLDINGS LIMITED, priority 2018, published 2021).
≈ marks a conversion by molar mass, not a printed value.

Test system: Thermo-Acidophilic Bacilli (Alicyclobacillus acidoterrestris ATCC 49025)
Assay: Evaluation of antibacterial action (agar plate dilution MIC)
Format: cell-based
Method: Thermo-Acidophilic Bacilli (Alicyclobacillus acidoterrestris ATCC 49025) were pre-incubated as test bacteria (conditions: YSG broth, 50±1° C., two days, aerobic conditions), so that a test bacterial solution was obtained. A 10 mg/mL xanthohumol solution and serial two-fold dilutions thereof were prepared using 99.5% ethanol. Each of the solution and dilutions was added to a medium (YSG agar medium) whose temperature is maintained at 50±1° C. after being sterilized and dissolved at a ratio of 1/99 (volume of xanthohumol solution/volume of medium solution) and mixed sufficiently. The resulting mixtures were each dispensed into a petri dish and solidified, whereby agar plate media were produced. Each of the agar plate media was smeared with the pre-incubated test bacterial solution, followed by incubation at 50±1° C. for five days under aerobic conditions. The lowest concentration where the growth of the bacteria was prevented was taken as the minimum inhibitory concentration (MIC).

MIC (ATCC49025, 120 h, YSG agar medium, 50±1° C., five days, aerobic conditions): 3.13 µg/mL (≈ 8.83 µM)
Compound: COc1cc(O)c(CC=C(C)C)c(O)c1C(=O)/C=C/c1ccc(O)cc1 [Xanthohumol]
growth of Thermo-Acidophilic Bacilli: inhibit the growth
